According to ChEMBL document CHEMBL5150029, “Conformationally Defined Rexinoids for the Prevention of Inflammation and Nonmelanoma Skin Cancers” (J Med Chem, 2022):
Calls of active or inactive are those of the source. The rule behind the calls is not given here.

Assays:
[1] = molecular target: T1, Retinoic acid receptor RXR-alpha (Homo sapiens, UniProt P19793); assay: Binding affinity to human RXRalpha LBD (T225 to T462 residues) assessed as binding constant by isothermal titration calorimetry
T1 sequence (P19793 whole entry): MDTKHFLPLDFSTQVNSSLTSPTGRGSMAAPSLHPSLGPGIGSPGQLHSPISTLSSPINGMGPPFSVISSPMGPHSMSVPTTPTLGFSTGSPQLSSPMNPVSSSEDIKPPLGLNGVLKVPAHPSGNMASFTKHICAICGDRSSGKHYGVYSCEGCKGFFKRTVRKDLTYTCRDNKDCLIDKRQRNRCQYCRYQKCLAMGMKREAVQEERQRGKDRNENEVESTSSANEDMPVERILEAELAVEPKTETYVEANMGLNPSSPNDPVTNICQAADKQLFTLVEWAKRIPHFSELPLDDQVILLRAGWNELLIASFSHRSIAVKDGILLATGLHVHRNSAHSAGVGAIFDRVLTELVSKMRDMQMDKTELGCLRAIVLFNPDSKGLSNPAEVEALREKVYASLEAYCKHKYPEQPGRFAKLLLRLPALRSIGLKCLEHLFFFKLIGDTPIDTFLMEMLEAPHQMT

[2] = molecular target: T2, Retinoic acid receptor RXR-alpha (Homo sapiens) (UniProt P19793); conditions: filed as agonist
T2 sequence (whole entry): T1 sequence (P19793 whole entry)
Description: Binding affinity to human RXRalpha LBD (T225 to T462 residues) assessed as gibbs free energy change by isothermal titration calorimetry

[3] = molecular target: T2, Retinoic acid receptor RXR-alpha (Homo sapiens); conditions: filed as agonist; remark: listed apart in the source
Description: Binding affinity to human RXRalpha LBD (T225 to T462 residues) assessed as change in enthalpy by isothermal titration calorimetry

[4] = molecular target: T2, Retinoic acid receptor RXR-alpha (Homo sapiens); conditions: filed as agonist; remark: listed apart in the source
Description: Binding affinity to human RXRalpha LBD (T225 to T462 residues) assessed as change in entropy by isothermal titration calorimetry

[5] = molecular target: T1, Retinoic acid receptor RXR-alpha; assay: Binding affinity to human RXRalpha LBD (T225 to T462 residues) by fluorescence quenching assay
[6] = molecular target: T1, Retinoic acid receptor RXR-alpha; assay: Agonist activity at human GAL4-fused RXRalpha LBD (T225 to T462 residues) expressed in HEK293 cells incubated for 24 hrs by Dual-Glo luciferase assay; assay type: cell-based
[7] = Induction of triglyceride level in Sprague-Dawley rat at 200 mg/kg in diet for 7 days (reference value: 89 +/- 10 mg/dl); assay type: functional; conditions: time 7 day
[8] = Induction of triglyceride level in Sprague-Dawley rat at 200 mg/kg in diet for 7 days relative to control (reference value: 0 %); assay type: functional; conditions: time 7 day
[9] = test system: RAW264.7; assay: Antiinflammatory activity in LPS-induced mouse RAW264.7 cells assessed as reduction in IL-6 level at 10 uM after 6 hrs by RT-PCR analysis; assay type: functional, cell-based
[10] = test system: RAW264.7; assay: Antiinflammatory activity in LPS-induced mouse RAW264.7 cells assessed as reduction in CCL5 level at 10 uM after 6 hrs by RT-PCR analysis; assay type: functional, cell-based
[11] = test system: RAW264.7; assay: Antiinflammatory activity in LPS-induced mouse RAW264.7 cells assessed as reduction in Saa3 level at 10 uM after 6 hrs by RT-PCR analysis; assay type: functional, cell-based
[12] = test system: RAW264.7; assay: Antiinflammatory activity in LPS-induced mouse RAW264.7 cells assessed as reduction in IL27 level at 10 uM after 6 hrs by RT-PCR analysis; assay type: functional, cell-based
[13] = test system: Mus musculus; assay: Prevention of UVB-induced carcinogenesis in Ptch+/- / SHK-1 mouse assessed as reduction in tumor number at 25 mg/kg measured after twice a week of UVB irradiation for 34 weeks (reference value: 100 %); assay type: functional; set-up: scale not given: the % may be the effect or the level left
[14] = test system: Mus musculus; assay: Prevention of UVB-induced carcinogenesis in Ptch+/- / SHK-1 mouse assessed as reduction in tumor number at 25 mg/kg measured after twice a week of UVB irradiation for 34 weeks (reference value: 8.16 +/- 1.87); assay type: functional
[15] = test system: RAW264.7; assay: Antiinflammatory activity in LPS-induced mouse RAW264.7 cells assessed as reduction in IL-1beta level at 10 uM after 6 hrs by RT-PCR analysis; assay type: functional, cell-based
[16] = test system: RAW264.7; assay: Antiinflammatory activity in LPS-induced mouse RAW264.7 cells assessed as reduction in CCL22 level at 10 uM after 6 hrs by RT-PCR analysis; assay type: functional, cell-based
[17] = test system: RAW264.7; assay: Antiinflammatory activity in LPS-induced mouse RAW264.7 cells assessed as reduction in Csf3 level at 10 uM after 6 hrs by RT-PCR analysis; assay type: functional, cell-based
[18] = Induction of triglyceride level in Sprague-Dawley rat at 150 mg/kg in diet for 7 days relative to control; assay type: functional; conditions: time 7 day
[19] = Induction of triglyceride level in Sprague-Dawley rat at 60 mg/kg in diet for 7 days relative to control; assay type: functional; conditions: time 7 day
[20] = test system: Epithelial cell; assay: Upregulation of RARB gene expression in human organotypic epithelial cells at 0.2 uM incubated for 9 days with replacement of fresh compounds every other day by qPCR analysis; assay type: functional, cell-based; conditions: time 9.0 day
[21] = test system: Mus musculus; assay: Prevention of UVB-induced carcinogenesis in Ptch+/- / SHK-1 mouse assessed as reduction in tumor number at 24 mg/kg measured after twice a week of UVB irradiation for 34 weeks (reference value: 100 %); assay type: functional; set-up: scale not given: the % may be the effect or the level left
[22] = test system: Epithelial cell; assay: Upregulation of CRABP2 gene expression in human organotypic epithelial cells at 0.2 uM incubated for 9 days with replacement of fresh compounds every other day by qPCR analysis; assay type: functional, cell-based; conditions: time 9.0 day
[23] = test system: Epithelial cell; assay: Upregulation of RARG gene expression in human organotypic epithelial cells at 0.2 uM incubated for 9 days with replacement of fresh compounds every other day by qPCR analysis; assay type: functional, cell-based; conditions: time 9.0 day
[24] = test system: Epithelial cell; assay: Upregulation of RBP1 gene expression in human organotypic epithelial cells at 0.2 uM incubated for 9 days with replacement of fresh compounds every other day by qPCR analysis; assay type: functional, cell-based; conditions: time 9.0 day
[25] = test system: Epithelial cell; assay: Upregulation of LRAT gene expression in human organotypic epithelial cells at 0.2 uM incubated for 9 days with replacement of fresh compounds every other day by qPCR analysis; assay type: functional, cell-based; conditions: time 9.0 day
[26] = test system: Mus musculus; assay: Prevention of UVB-induced carcinogenesis in Ptch+/- / SHK-1 mouse assessed as reduction in tumor number at 24 mg/kg measured after twice a week of UVB irradiation for 34 weeks (reference value: 8.16 +/- 1.87); assay type: functional
[27] = test system: Epithelial cell; assay: Downregulation of MCM7 gene expression in human organotypic epithelial cells at 0.2 uM incubated for 9 days with replacement of fresh compounds every other day by qPCR analysis; assay type: functional, cell-based; conditions: time 9.0 day
[28] = test system: Epithelial cell; assay: Upregulation of STRA6 gene expression in human organotypic epithelial cells at 0.2 uM incubated for 9 days with replacement of fresh compounds every other day by qPCR analysis; assay type: functional, cell-based; conditions: time 9.0 day
[29] = test system: Epithelial cell; assay: Downregulation of LOR gene expression in human organotypic epithelial cells at 0.2 uM incubated for 9 days with replacement of fresh compounds every other day by qPCR analysis; assay type: functional, cell-based; conditions: time 9.0 day
[30] = test system: Epithelial cell; assay: Downregulation of ACER1 gene expression in human organotypic epithelial cells at 0.2 uM incubated for 9 days with replacement of fresh compounds every other day by qPCR analysis; assay type: functional, cell-based; conditions: time 9.0 day
[31] = test system: Epithelial cell; assay: Upregulation of RDH10 gene expression in human organotypic epithelial cells at 0.2 uM incubated for 9 days with replacement of fresh compounds every other day by qPCR analysis; assay type: functional, cell-based; conditions: time 9.0 day
[32] = test system: Mus musculus; assay: Prevention of UVB-induced carcinogenesis in Ptch+/- / SHK-1 mouse assessed as reduction in tumor number at 20 mg/kg measured after twice a week of UVB irradiation for 34 weeks; assay type: functional

| Kd [1] [nM] | deltaG [2] [kcal/mol] | deltaH [3] [kcal/mol] | TdeltaS [4] [kcal/mol] | Kd [5] [nM] | EC50 [6] [nM] | SMILES | Activity [7] [mg/dL] | Activity [8] [%] | Activity [9] | Activity [10] | Activity [11] | Activity [12] | Activity [15] | Activity [16] | Activity [17] | also measured |
| --- | --- | --- | --- | --- | --- | --- | --- | --- | --- | --- | --- | --- | --- | --- | --- | --- |
| 3500 | -7.5 | -5.1 | 2.38 | 4.1 | 23 | CCC(C)C1=C(CCC(C)C)/C(=C/C(C)=C\C=C\C(C)=C\C(=O)O)CCC1 (mixture of isomers) | 277 | 211 |  |  |  |  |  |  |  |  |
| 3100 | -7.5 | -6.8 | 0.76 | 4.7 | 210 | CCCCC1=C(CCC(C)C)/C(=C/C(C)=C\C=C\C(C)=C\C(=O)O)CCC1 | 101 | 13 | Active | Active | Active | Active | Active | Active | Active | Activity [13]: 82%; Activity [14]: 1.44 |
|  |  |  |  |  |  | C=C(c1ccc(C(=O)O)cc1)c1cc2c(cc1C)C(C)(C)CCC2(C)C [BEXAROTENE] |  |  |  |  |  |  |  |  |  | Activity [18]: 350% |
|  |  |  |  |  |  | CC1=C(/C=C/C(C)=C\C=C\C(C)=C\C(=O)O)C(C)(C)CCC1 [ALITRETINOIN] |  |  |  |  |  |  |  |  |  | Activity [19]: 400% |
| 2000 | -7.8 | -7.4 | 0.38 | 3.6 | 61 | CCCC1=C(CCC(C)C)/C(=C/C(C)=C\C=C\C(C)=C\C(=O)O)CCC1 | 160 | 80 | Active | Active | Active | Active | Active | Active | Active | Activity [20]: Active; Activity [21]: 63%; Activity [22]: Active; Activity [23]: Active; Activity [24]: Active; Activity [25]: Active; Activity [26]: 3; Activity [27]: Active; Activity [28]: Active; Activity [29]: Active; Activity [30]: Active; Activity [31]: Active |
|  |  |  |  |  |  | CC(=C/C=C/C(C)=C/C(=O)O)/C=C1\CCCc2ccccc21 [UAB-30] |  |  |  |  |  |  |  |  |  | Activity [32]: 5.4 |
|  |  |  |  |  |  | CC(=C/C=C/C(C)=C/C(=O)O)/C=C1\CCCC(CCC(C)C)=C1CCC(C)C | 107 | 20 | Active | Active | Active | Active | Active | Active | Active | Activity [20]: Active; Activity [22]: Active; Activity [23]: Active; Activity [24]: Active; Activity [25]: Active; Activity [27]: Active; Activity [28]: Active; Activity [29]: Active; Activity [30]: Active; Activity [31]: Active |
